# Assay results: ChEMBL document CHEMBL4270518 (Eur J Med Chem, 2018)
# Calls of active or inactive are those of the source. The rule behind the calls is not given here.
# Tests used:
# MV4-11 [1] = test: Induction of apoptosis in human MV4-11 cells at 30 nM after 24 to 48 hrs by Annexin V-PI staining based flow cytometry; type: functional, cell-based
# [2] = target: T1, Protein deacetylase HDAC6 (Homo sapiens, UniProt Q9UBN7); test: Inhibition of human recombinant HDAC6 using RHKKAcAMC as substrate by fluorescence assay
# T1 sequence (Q9UBN7 whole entry): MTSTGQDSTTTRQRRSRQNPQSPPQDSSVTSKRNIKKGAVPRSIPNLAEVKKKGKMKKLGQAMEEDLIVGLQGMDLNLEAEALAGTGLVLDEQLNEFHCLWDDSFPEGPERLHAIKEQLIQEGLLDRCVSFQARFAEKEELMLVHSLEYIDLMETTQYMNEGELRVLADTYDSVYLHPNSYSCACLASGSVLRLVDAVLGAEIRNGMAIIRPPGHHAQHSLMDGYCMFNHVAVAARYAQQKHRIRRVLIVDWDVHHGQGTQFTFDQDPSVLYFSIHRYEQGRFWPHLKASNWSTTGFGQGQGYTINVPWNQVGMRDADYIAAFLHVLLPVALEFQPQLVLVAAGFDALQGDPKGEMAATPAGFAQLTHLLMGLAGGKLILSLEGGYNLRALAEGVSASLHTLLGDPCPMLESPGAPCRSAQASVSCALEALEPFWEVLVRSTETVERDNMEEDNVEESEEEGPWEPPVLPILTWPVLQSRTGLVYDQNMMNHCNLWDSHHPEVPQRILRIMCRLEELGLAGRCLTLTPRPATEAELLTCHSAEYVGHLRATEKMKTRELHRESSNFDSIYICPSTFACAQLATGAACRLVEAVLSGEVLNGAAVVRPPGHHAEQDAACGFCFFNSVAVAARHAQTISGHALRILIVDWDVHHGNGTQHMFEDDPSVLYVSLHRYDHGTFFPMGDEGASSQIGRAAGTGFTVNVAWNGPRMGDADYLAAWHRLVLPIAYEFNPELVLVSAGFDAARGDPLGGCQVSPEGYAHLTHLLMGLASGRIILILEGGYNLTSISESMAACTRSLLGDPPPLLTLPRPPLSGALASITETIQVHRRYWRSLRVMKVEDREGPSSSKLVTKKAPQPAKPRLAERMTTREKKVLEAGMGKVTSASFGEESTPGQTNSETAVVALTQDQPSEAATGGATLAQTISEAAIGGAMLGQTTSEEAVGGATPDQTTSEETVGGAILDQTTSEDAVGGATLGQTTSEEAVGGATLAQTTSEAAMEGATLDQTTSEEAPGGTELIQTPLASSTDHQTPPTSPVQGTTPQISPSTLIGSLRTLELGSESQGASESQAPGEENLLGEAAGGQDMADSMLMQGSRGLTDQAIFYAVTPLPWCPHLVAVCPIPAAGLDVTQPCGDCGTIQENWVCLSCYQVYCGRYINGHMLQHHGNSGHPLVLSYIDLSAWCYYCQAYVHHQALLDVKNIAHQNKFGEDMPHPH
# MV4-11 [3] = test: Inhibition of class 1 HDAC in human MV4-11 cells assessed as hyperacetylation of histone H3 at 200 nM after 24 hrs by Western blot analysis; type: cell-based
# Homo sapiens [4] = species on record: Homo sapiens; test: Selectivity ratio of IC50 for human recombinant HDAC8 to IC50 for human recombinant HDAC6
# Histone deacetylase 2 = Histone deacetylase 2 (Homo sapiens, UniProt Q92769); test: Inhibition of human recombinant HDAC2 using RHKKAcAMC as substrate by fluorescence assay
# Histone deacetylase 2, sequence (Q92769 whole entry): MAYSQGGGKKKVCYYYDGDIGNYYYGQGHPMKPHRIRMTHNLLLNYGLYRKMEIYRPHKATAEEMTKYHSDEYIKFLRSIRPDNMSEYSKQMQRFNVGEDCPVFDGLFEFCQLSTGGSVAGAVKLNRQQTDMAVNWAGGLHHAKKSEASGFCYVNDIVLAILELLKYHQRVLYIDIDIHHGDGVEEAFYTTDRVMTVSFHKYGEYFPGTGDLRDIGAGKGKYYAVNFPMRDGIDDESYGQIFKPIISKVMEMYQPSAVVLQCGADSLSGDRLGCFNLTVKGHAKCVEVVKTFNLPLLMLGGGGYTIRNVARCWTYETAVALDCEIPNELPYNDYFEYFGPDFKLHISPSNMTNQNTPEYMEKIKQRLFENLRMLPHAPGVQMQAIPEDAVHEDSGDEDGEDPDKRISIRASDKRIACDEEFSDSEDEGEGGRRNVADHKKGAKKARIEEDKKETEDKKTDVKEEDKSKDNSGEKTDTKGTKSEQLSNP
# Histone deacetylase 8 = target: T2, Histone deacetylase 8 (Homo sapiens, UniProt Q9BY41); test: Inhibition of human recombinant HDAC8 using RHKAcKAcAMC as substrate by fluorescence assay
# T2 sequence (Q9BY41 whole entry): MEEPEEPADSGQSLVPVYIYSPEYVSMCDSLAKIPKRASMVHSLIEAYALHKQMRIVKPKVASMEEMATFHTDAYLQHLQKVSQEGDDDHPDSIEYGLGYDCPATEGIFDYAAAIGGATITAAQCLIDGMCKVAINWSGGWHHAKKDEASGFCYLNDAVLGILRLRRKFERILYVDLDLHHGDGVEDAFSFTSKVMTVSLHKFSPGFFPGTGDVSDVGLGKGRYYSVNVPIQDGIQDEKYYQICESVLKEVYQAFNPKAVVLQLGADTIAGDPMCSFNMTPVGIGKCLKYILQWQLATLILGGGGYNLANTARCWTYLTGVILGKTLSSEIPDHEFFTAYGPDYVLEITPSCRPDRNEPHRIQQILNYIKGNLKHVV
# [5] = target: T3, Polyamine deacetylase HDAC10 (Homo sapiens, UniProt Q969S8); test: Inhibition of human recombinant HDAC10 using RHKKAcAMC as substrate by fluorescence assay
# T3 sequence (Q969S8 whole entry): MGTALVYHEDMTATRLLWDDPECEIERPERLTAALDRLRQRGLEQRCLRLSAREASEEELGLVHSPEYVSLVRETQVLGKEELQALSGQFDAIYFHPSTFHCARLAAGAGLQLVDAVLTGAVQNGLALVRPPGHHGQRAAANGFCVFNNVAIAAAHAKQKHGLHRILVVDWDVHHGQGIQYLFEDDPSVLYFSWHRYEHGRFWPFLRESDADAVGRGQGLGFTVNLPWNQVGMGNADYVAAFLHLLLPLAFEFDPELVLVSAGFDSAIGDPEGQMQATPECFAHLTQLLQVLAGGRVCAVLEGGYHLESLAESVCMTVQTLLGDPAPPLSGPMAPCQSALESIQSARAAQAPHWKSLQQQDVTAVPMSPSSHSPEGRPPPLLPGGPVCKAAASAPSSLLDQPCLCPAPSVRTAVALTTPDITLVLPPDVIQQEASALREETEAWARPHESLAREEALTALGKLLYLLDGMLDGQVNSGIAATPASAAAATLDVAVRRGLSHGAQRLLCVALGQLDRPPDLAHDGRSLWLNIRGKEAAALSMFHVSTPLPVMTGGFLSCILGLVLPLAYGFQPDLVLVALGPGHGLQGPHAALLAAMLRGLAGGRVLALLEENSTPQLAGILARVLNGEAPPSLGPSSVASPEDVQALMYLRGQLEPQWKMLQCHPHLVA
# [6] = target: T4, Protein deacetylase HDAC6 (Homo sapiens) (UniProt Q9UBN7); test: Inhibition of HDAC6 in human MV4-11 cells assessed as accumulation of acetylated alpha-tubulin at 50 nM after 24 hrs by Western blot analysis; type: cell-based
# T4 sequence (whole entry): T1 sequence (Q9UBN7 whole entry)
# MV4-11 [7] = test: Induction of apoptosis in human MV4-11 cells up to 1 uM after 24 to 48 hrs by Annexin V-PI staining based flow cytometry; type: functional, cell-based
# [8] = target: T4, Protein deacetylase HDAC6 (Homo sapiens); test: Inhibition of HDAC6 in human MV4-11 cells assessed as accumulation of acetylated alpha-tubulin at 200 nM by Western blot analysis; type: cell-based; conditions: TDE = time-dependent effect
# [9] = target: T4, Protein deacetylase HDAC6 (Homo sapiens); test: Inhibition of HDAC6 in human MV4-11 cells assessed as accumulation of acetylated alpha-tubulin at 200 nM after 10 to 1440 mins by Western blot analysis; type: cell-based
# MV4-11 [10] = test: Cell cycle arrest in human MV4-11 cells up to 1 uM after 24 to 48 hrs by propidium iodide staining based flow cytometry; type: functional
# MV4-11 [11] = test: Inhibition of class 1 HDAC in human MV4-11 cells assessed as hyperacetylation of histone H3 at higher concentration after 24 hrs by Western blot analysis; type: cell-based
# Homo sapiens [12] = species on record: Homo sapiens; test: Selectivity ratio of IC50 for human recombinant HDAC1 to IC50 for human recombinant HDAC6
# Homo sapiens [13] = species on record: Homo sapiens; test: Selectivity ratio of IC50 for human recombinant HDAC4 to IC50 for human recombinant HDAC6
# Histone deacetylase 4 = Histone deacetylase 4 (Homo sapiens, UniProt P56524); test: Inhibition of human recombinant HDAC4 using fluorogenic trifluoroacetyl lysine as substrate by fluorescence assay
# Histone deacetylase 4, sequence (P56524 whole entry): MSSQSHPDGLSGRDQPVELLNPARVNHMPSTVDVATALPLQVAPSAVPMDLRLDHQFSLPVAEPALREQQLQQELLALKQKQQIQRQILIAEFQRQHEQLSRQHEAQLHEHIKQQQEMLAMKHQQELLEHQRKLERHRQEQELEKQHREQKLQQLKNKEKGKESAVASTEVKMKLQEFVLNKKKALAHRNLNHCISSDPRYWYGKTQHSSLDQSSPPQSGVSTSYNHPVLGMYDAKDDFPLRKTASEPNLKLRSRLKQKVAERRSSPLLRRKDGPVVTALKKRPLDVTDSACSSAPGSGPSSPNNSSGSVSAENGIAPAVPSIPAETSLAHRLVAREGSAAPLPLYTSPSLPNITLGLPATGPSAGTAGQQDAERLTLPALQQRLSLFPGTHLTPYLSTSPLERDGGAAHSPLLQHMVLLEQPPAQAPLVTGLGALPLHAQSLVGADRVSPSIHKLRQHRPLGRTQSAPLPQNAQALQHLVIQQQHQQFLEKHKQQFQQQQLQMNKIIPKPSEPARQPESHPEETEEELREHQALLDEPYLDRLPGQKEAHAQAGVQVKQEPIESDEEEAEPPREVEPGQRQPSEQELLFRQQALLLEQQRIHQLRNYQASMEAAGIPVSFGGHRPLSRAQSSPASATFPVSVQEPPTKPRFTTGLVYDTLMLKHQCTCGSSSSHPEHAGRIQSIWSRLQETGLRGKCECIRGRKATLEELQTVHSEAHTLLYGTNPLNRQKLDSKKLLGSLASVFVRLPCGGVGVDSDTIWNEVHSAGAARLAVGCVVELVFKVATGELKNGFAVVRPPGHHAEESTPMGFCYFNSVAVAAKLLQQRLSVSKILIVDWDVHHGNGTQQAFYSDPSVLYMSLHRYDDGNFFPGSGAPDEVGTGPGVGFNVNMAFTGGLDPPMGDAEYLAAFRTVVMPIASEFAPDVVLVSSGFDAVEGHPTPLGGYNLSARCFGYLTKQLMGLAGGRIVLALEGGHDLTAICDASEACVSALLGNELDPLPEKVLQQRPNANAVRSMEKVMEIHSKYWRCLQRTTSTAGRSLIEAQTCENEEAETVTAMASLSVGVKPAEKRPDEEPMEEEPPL
# Histone deacetylase 1 = Histone deacetylase 1 (Homo sapiens, UniProt Q13547); test: Inhibition of human recombinant HDAC1 using RHKKAcAMC as substrate by fluorescence assay
# Histone deacetylase 1, sequence (Q13547 whole entry): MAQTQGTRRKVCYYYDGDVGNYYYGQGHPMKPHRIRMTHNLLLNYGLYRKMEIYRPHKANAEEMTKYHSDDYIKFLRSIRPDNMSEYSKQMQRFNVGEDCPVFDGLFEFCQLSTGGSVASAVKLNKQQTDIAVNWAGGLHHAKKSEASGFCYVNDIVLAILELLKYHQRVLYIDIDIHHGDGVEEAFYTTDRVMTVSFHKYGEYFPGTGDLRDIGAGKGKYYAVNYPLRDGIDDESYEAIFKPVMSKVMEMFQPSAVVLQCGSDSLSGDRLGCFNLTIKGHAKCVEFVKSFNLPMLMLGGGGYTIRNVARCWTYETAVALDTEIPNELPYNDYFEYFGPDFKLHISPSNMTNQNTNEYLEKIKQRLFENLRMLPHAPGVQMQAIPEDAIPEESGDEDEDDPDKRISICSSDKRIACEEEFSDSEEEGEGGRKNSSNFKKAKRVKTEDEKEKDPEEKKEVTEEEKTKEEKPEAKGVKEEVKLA
# Homo sapiens [14] = species on record: Homo sapiens; test: Selectivity ratio of IC50 for human recombinant HDAC2 to IC50 for human recombinant HDAC6
# MV4-11 [15] = test: Induction of apoptosis in human MV4-11 cells at 5 uM after 24 to 48 hrs by Annexin V-PI staining based flow cytometry; type: functional, cell-based
IC50 [2] [nM],Structure (SMILES),inhibition (MV4-11 [3]),further results
,Cc1[nH]c2ccccc2c1CCNCc1ccc(/C=C/C(=O)NO)cc1,,Activity (MV4-11 [1]): Active
1.66,CCCN1CC(=O)N2Cc3c(c4cc(OC)ccc4n3Cc3ccc(C(=O)NO)cc3)CC2C1=O (centres undefined),,
8.03,CCN1CC(=O)N2Cc3c(c4ccccc4n3Cc3ccc(C(=O)NO)cc3)CC2C1=O (centres undefined),Active,
4.54,CCN1C(=O)C2Cc3c(n(Cc4ccc(C(=O)NO)cc4)c4ccccc34)CN2C1=O (centres undefined),Active,
60.7,CCCN1CC(=O)N2[C@H](C)c3c(c4ccccc4n3Cc3ccc(C(=O)NO)cc3)C[C@H]2C1=O,,
18.5,CCCN1CC(=O)N2[C@H](Cc3c(n(Cc4ccc(C(=O)NO)cc4)c4ccccc34)[C@H]2C)C1=O,,
3.78,CC(C)CN1CC(=O)N2Cc3c(c4ccccc4n3Cc3ccc(C(=O)NO)cc3)CC2C1=O (centres undefined),Active,
3.73,CCCN1CC(=O)N2Cc3c(c4ccccc4n3Cc3ccc(C(=O)NO)cc3)CC2C1=O (centres undefined),Active,Ratio IC50 (Homo sapiens [4]): 200; IC50 (Histone deacetylase 2): 3340 nM; IC50 (Histone deacetylase 8): 747 nM; IC50 [5]: 39500 nM; inhibition [6]: Active; Activity (MV4-11 [7]): inactive; inhibition [8]: Tde; inhibition [9]: Active; Activity (MV4-11 [10]): inactive; inhibition (MV4-11 [11]): Active; Ratio IC50 (Homo sapiens [12]): 2260; Ratio IC50 (Homo sapiens [13]): 5500; IC50 (Histone deacetylase 4): 20500 nM; IC50 (Histone deacetylase 1): 8450 nM; Ratio IC50 (Homo sapiens [14]): 900
3.26,CCCCN1CC(=O)N2Cc3c(c4ccccc4n3Cc3ccc(C(=O)NO)cc3)CC2C1=O (centres undefined),Active,
83.5,CCCN1CC(=O)N2[C@@H](Cc3c(n(Cc4ccc(C(=O)NO)cc4)c4ccccc34)[C@@H]2C)C1=O,,
,Nc1ccccc1NC(=O)c1ccc(CNC(=O)OCc2cccnc2)cc1,Active,Activity (MV4-11 [15]): Active
13.6,CN1CC(=O)N2Cc3c(c4ccccc4n3Cc3ccc(C(=O)NO)cc3)CC2C1=O (centres undefined),,
1.8,CCCN1CC(=O)N2[C@H](Cc3c(n(Cc4ccc(C(=O)NO)cc4)c4ccccc34)[C@@H]2C)C1=O,,IC50 (Histone deacetylase 2): 1870 nM; IC50 (Histone deacetylase 8): 168 nM; IC50 [5]: 1510 nM; Activity (MV4-11 [7]): inactive; Activity (MV4-11 [10]): inactive; IC50 (Histone deacetylase 4): 1440 nM; IC50 (Histone deacetylase 1): 1050 nM
9.32,CCCCN1C(=O)C2Cc3c(n(Cc4ccc(C(=O)NO)cc4)c4ccccc34)CN2C1=O (centres undefined),,
2.38,CN1C(=O)C2Cc3c(n(Cc4ccc(C(=O)NO)cc4)c4ccccc34)CN2C1=O (centres undefined),,
10.1,CCCN1C(=O)C2Cc3c(n(Cc4ccc(C(=O)NO)cc4)c4ccccc34)CN2C1=O (centres undefined),Active,
1.25,CCCN1CC(=O)N2Cc3c(c4cc(OCc5ccccc5)ccc4n3Cc3ccc(C(=O)NO)cc3)CC2C1=O (centres undefined),,
0.89,CCCN1CC(=O)N2Cc3c(c4cc(O)ccc4n3Cc3ccc(C(=O)NO)cc3)CC2C1=O (centres undefined),,
24.1,CC(C)CCN1CC(=O)N2Cc3c(c4ccccc4n3Cc3ccc(C(=O)NO)cc3)CC2C1=O (centres undefined),Active,
